From patent US9451764B2, “Composition comprising insecticide-wax particles” (priority 2010, dated 2016)

System: Blattella germanica
Experiment: Activity of different insecticides on timber, cement and tile
Assay type: in vivo
From the text: Example e) illustrates that other active ingredients as well can be used successfully in the context of this invention (as a diluted suspension concentration, i.e. as a spraying liquor of the invention). In addition to deltamethrin, both bendiocarb and beta-cyfluthrin and cyfluthrin can be encapsulated.

[1] = 50 mg/m^2 (reduced concentration), Cement
[2] = 50 mg/m^2 (reduced concentration), Tile
[3] = 100 mg/m^2 (standard concentration), Cement, 30-minute exposure
[4] = 100 mg/m^2 (standard concentration), Tile, 30-minute exposure
[5] = 4 mg/m^2 (reduced concentration), Cement
[6] = 4 mg/m^2 (reduced concentration), Tile
[7] = 4 mg/m^2 (reduced concentration), Timber
[8] = 12.5 mg/m^2 (standard concentration), Cement, 30-minute exposure
[9] = 12.5 mg/m^2 (standard concentration), Tile, 30-minute exposure
[10] = 12.5 mg/m^2 (standard concentration), Timber, 30-minute exposure
[11] = 8 mg/m^2 (reduced concentration), Cement
[12] = 8 mg/m^2 (reduced concentration), Tile
[13] = 8 mg/m^2 (reduced concentration), Timber
[14] = 25 mg/m^2 (standard concentration), Cement, 30-minute exposure
[15] = 25 mg/m^2 (standard concentration), Tile, 30-minute exposure
[16] = 25 mg/m^2 (standard concentration), Timber, 30-minute exposure

CNC(=O)Oc1cccc2c1OC(C)(C)O2 [Bendiocarb, bendiocarb]
Knockdown after 1 h [1]: 90%
Mortality after 24 h [1]: 100%
Knockdown after 1 h [2]: 100%
Mortality after 24 h [2]: 100%
Knockdown after 1 h (50 mg/m^2 (reduced concentration), Timber): 50%
Knockdown after 1 h [3]: 100%
Mortality after 24 h [3]: 100%
Knockdown after 1 h [4]: 100%
Mortality after 24 h [4]: 100%
Knockdown after 1 h (100 mg/m^2 (standard concentration), Timber, 30-minute exposure): 60%
mortality at 50 mg/m2 (Blattella germanica, 24 h, read-out: Mortality after 24 h): 100%
mortality at 100 mg/m2 (Blattella germanica, read-out: Mortality after 24 h): 100%

CC1(C)C(C=C(Cl)Cl)C1C(=O)OC(C#N)c1ccc(F)c(Oc2ccccc2)c1 (stereo not drawn) [Beta-cyfluthrin, beta-cyfluthrin]
Knockdown after 1 h [5]: 100%
Mortality after 24 h [5]: 100%
Knockdown after 1 h [6]: 100%
Mortality after 24 h [6]: 100%
Knockdown after 1 h [7]: 100%
Mortality after 24 h [7]: 100%
Knockdown after 1 h [8]: 100%
Mortality after 24 h [8]: 100%
Knockdown after 1 h [9]: 100%
Mortality after 24 h [9]: 100%
Knockdown after 1 h [10]: 100%
Mortality after 24 h [10]: 100%

CC1(C)[C@H](C(=O)O[C@H](C#N)c2cccc(Oc3ccccc3)c2)[C@@H]1C=C(Br)Br [Deltamethrin, deltamethrin]
Knockdown after 1 h [5]: 100%
Mortality after 24 h [5]: 100%
Knockdown after 1 h [6]: 100%
Mortality after 24 h [6]: 100%
Knockdown after 1 h [7]: 100%
Knockdown after 1 h [8]: 100%
Mortality after 24 h [8]: 100%
Knockdown after 1 h [9]: 100%
Mortality after 24 h [9]: 100%
Knockdown after 1 h [10]: 100%
mortality at 4 mg/m2 (Blattella germanica, 24 h, 4 mg/m^2 (reduced concentration), Timber, read-out: Mortality after 24 h): 100%
mortality at 12.5 mg/m2 (Blattella germanica, 12.5 mg/m^2 (standard concentration), Timber, 30-minute exposure, read-out: Mortality after 24 h): 100%

CC1(C)C(C=C(Cl)Cl)C1C(=O)OC(C#N)c1ccc(F)c(Oc2ccccc2)c1 (stereo not drawn) [cyfluthrin]
Knockdown after 1 h [11]: 100%
Mortality after 24 h [11]: 100%
Knockdown after 1 h [12]: 100%
Mortality after 24 h [12]: 100%
Knockdown after 1 h [13]: 100%
Mortality after 24 h [13]: 100%
Knockdown after 1 h [14]: 100%
Mortality after 24 h [14]: 100%
Knockdown after 1 h [15]: 100%
Mortality after 24 h [15]: 100%
Knockdown after 1 h [16]: 100%
Mortality after 24 h [16]: 100%
